Reference: patent publication US11974983B2 (Duke University, priority 2018, dated 2024)

Legend:
[1] = tested on: wild-type ERα and ERα LBD mutants Y537S, Y537N, Y537C, D538G; assay: ERE-luciferase reporter assay in Caov2 and SKBR3 cells (statements on all receptors); type: cell-based
Protocol: ExSite mutagenesis was performed using the corresponding primers as summarized in Table 1 below on a pENTR2B ERα WT construct using Pfu ultra taq polymerase. The primers were PNK phosphorylated. Following PCR amplification, the products were digested with DpnI at 37° C. for 1 hr, followed by overnight ligation at 16° C. Ligated products were transformed into DH5α bacterial cells and grown on kanamycin resistant plates. The pENTR clones were verified by sequencing and then swapped into the pcDNA-DEST vector using the Gateway system (Invitrogen) for expression analysis.
Caov2 ovarian carcinoma cells were grown in RPMI-1640 media (Gibco) supplemented with 8% Fetal Bovine Serum (FBS), Sodium Pyruvate (NaPyr) and non-essential amino acids (NEAA) and passaged every 2-3 days. SKBR3 breast adenocarcinoma cells were grown in DMEM media (Gibco) supplemented with 8% Fetal Bovine Serum (FBS), Sodium Pyruvate (NaPyr) and non-essential amino acids (NEAA) and passaged every 2-3 days. […]
Caov2 cells were co-transfected with the 7X-TK-ERE-TATA luciferase reporter gene (Nagel et al., Endocrinology 142(11): 4721-4728 (2001)) and expression constructs for either wild-type or mutant receptors using Fugene transfection reagent (Promega). […] Following 24 hours of treatment, cells were lysed and the luciferase and β-gal assays were performed as described previously (Norris et al., J Biol Chem 270(39): 22777-22782 (1995)) and the plates were read on the Fusion α-FP HT plate reader (PerkinElmer Life Sciences).
See Jeselsohn et al., Nature Reviews Clinical Oncology 12(10): 573-583 (2015); Jeselsohn et al., Clinical Cancer Research 20(7): 1757-1767 (2014); Robinson et al., Nature Genetics 45(12): 1446-1451(2013); Thomas and Gustafsson, Trends in Endocrinology and Metabolism 26(9): 467-476 (2015); and Toy et al., Nature Genetics 45(12): 1439-1445 (2013). The activity of these mutants was evaluated in a reconstituted estrogen response element (ERE)-luciferase reporter assay in Caov2 ovarian carcinoma cells and SKBR3 breast adenocarcinoma cells. […]

MCF7 Y537S = assay: Mammary intraductal (MIND) xenograft model, MCF7 Y537S; type: in vivo, NSG mice; conditions: MCF7 Y537S; fulvestrant 5 mg once per week; after 70 days
Protocol: (§1) MCF7 cells were engineered with CRISPR/Cas9 to express ERα with Y537S and D538G mutations. To mimic the natural environment of infiltrating ductal ERα^+ breast cancers, NSG™ mice were injected, via the nipple in the inguinal mammary glands, with three MCF7 cell variants: wild type MCF7 cells (MCF7 WT), MCF7 cells expressing Y537S mutant ERα (MCF7 Y537S), and MCF7 cells expressing D538G mutant ERα (MCF7 D538G), respectively. Prior to injection, the MCF7 cells were labeled with a luciferase reporter to monitor tumor growth in vivo using a Xenogen IVIS imager. […] FIG. 4 summarizes the experimental design.

MCF7 WT [2] = assay: MIND xenograft model, combination therapies, MCF7 WT; type: in vivo, mice
From the text: MCF7 WT and MCF7 Y537S MIND xenograft model were generated as described in Example 3. […] FIG. 20 summarizes the experimental design.

MCF7 WT [3] = assay: Mammary intraductal (MIND) xenograft model, MCF7 WT; type: in vivo, NSG mice; conditions: MCF7 WT mice; fulvestrant 5 mg once per week subcutaneous
Protocol: as §1

SMILES | transcriptional activity, response to E2 [1] | lung metastasis (MCF7 Y537S) | tumor growth monitored by total flux (MCF7 WT [2]; MCF7 WT mice, fulvestrant alone 5 mg/mouse once per week) | tumor growth by tumor volume (MCF7 WT [2]; MCF7 WT, day 36 and day 43 of treatment) | tumor growth monitored by total flux (MCF7 WT [3])
C[C@]12CC[C@@H]3c4ccc(O)cc4CC[C@H]3[C@@H]1CC[C@@H]2O [E2, 17-β estradiol] | not responsive to E2 activation |  |  |  | 
C[C@]12CC[C@@H]3c4ccc(O)cc4C[C@@H](CCCCCCCCC[S+]([O-])CCCC(F)(F)C(F)(F)F)[C@H]3[C@@H]1CC[C@@H]2O (some centres unmarked) [fulvestrant] |  | did not have a significant effect | the most effective in inhibiting tumor growth | the most effective | the most effective in inhibiting tumor growth
